Laboratory results taken from patent US20080153806A1, “Novel Diazabicyclic Aryl Derivatives And Their Medical Use” (priority 2004, published 2008).
Where a name gives a salt, the structure may show the parent alone. Read-outs that look alike come from different tables or passages of the source.

What was measured:
[1] = target: T1, α7-subtype of nicotinic receptors (Rattus norvegicus, UniProt Q05941); assay: In vitro inhibition of 3H-α-bungarotoxine binding in rat brain; settings: rat cerebral cortex homogenate, 2 hours at 37° C., read-out: IC50 (concentration of the test substance which inhibits the specific binding of 3H-α-bungarotoxine by 50%)
T1 construct: Cerebral cortices from male Wistar rats (150-250 g) are homogenised; from tissue; host or cells: rat cerebral cortex membrane homogenate (male Wistar rats)
T1 sequence (Q05941 23-502): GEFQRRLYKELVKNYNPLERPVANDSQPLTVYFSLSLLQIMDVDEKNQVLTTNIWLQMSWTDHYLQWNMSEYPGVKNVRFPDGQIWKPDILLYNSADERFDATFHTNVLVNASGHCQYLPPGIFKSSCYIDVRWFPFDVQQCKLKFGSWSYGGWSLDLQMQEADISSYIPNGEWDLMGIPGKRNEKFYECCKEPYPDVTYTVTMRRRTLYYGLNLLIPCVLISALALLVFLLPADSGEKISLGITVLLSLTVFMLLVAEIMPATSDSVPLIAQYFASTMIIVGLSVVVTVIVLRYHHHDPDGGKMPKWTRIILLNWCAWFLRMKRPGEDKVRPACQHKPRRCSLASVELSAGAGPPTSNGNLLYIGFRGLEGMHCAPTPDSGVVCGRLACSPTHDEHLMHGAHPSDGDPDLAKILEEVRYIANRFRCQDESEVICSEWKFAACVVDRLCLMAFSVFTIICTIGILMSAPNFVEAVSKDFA

melting point [°C]	SMILES	IC50 ([1]; […]) [nM]	IC50 ([1]; 3H-α-bungarotoxine 2 nM) [nM]
180	CN1C2CCC1CN(c1ccc(-c3ccc(Cl)cc3)nn1)C2		
192 to 200	CN1C2CCC1CN(c1nnc(-c3ccccc3)s1)C2 (as salt: fumaric acid salt)		
242	COc1ccc2cc(-c3ccc(N4CC5CCC(C4)N5C)nn3)ccc2c1 (as salt: fumaric acid salt)		
131 to 133	CN1C2CCC1CN(c1ccc(-c3cccnc3)nn1)C2		
170 to 172	COc1ccccc1-c1ccc(N2CC3CCC(C2)N3C)nn1		
186 to 195	CN1C2CCC1CN(c1ccc(-c3ccccc3N)nn1)C2 (as salt: fumaric acid salt)		
154 to 155	COc1ccc(-c2ccc(N3CC4CCC(C3)N4C)nn2)cc1		
219 to 222	CC(=O)Nc1ccccc1-c1ccc(N2CC3CCC(C2)N3C)nn1 (as salt: fumaric acid salt)		
159 to 160	CN1C2CCC1CN(c1cccc(-c3ccccc3)n1)C2 (as salt: fumaric acid salt)		
192 to 200	CN1C2CCC1CN(c1ccc(-c3ccccc3Cl)nn1)C2 (as salt: fumaric acid salt)		
159	CN1C2CCC1CN(c1ccc(-c3cccc(Cl)c3)nn1)C2		
110.5	CN1C2CCC1CN(c1ccc(-c3ccccc3)cn1)C2		
170 to 191	CN1C2CCC1CN(c1nnc(-c3ccccc3)o1)C2 (as salt: fumaric acid salt)		

Further lines, the compound ahead of its results:

SMILES	melting point [°C]	IC50 ([1]; […]) [nM]	IC50 ([1]; 3H-α-bungarotoxine 2 nM) [nM]
CN1C2CCC1CN(c1ccc(-c3ccccc3)nn1)C2	151		
CC(=O)Nc1cccc(-c2ccc(N3CC4CCC(C3)N4C)nn2)c1 [Compound E8, N-{3-[6-(8-Methyl-3,8-diaza-bicyclo[3.2.1]oct-3-yl)-pyridazin-3-yl]-phenyl}-acetamide]	74	< 1000	
CN1C2CCC1CN(c1ccc(-c3ccsc3)nn1)C2 [Compound E2, 8-Methyl-3-(6-thiophen-3-yl-pyridazin-3-yl)-3,8-diaza-bicyclo[3.2.1]octane]	172 to 173		< 1000
CN1C2CCC1CN(c1ccc(-c3ccccc3F)nn1)C2 [Compound E9, 3-[6-(2-Fluoro-phenyl)-pyridazin-3-yl]-8-methyl-3,8-diaza-bicyclo[3.2.1]octane]	152	< 1000	
COc1cccc(-c2ccc(N3CC4CCC(C3)N4C)nn2)c1	92 to 97		
CN1C2CCC1CN(c1ccc(-c3ccoc3)nn1)C2 [Compound E5, 3-(6-Furan-3-yl-pyridazin-3-yl)-8-methyl-3,8-diaza-bicyclo[3.2.1]octane]	152		< 1000
CN1C2CCC1CN(c1ccc(-c3cccc(F)c3)nn1)C2 [Compound E11, 3-[6-(3-Fluoro-phenyl)-pyridazin-3-yl]-8-methyl-3,8-diaza-bicyclo[3.2.1]octane]	149 to 150		< 1000
CN1C2CCC1CN(c1ccc(-c3cccc(N)c3)nn1)C2 [Compound E7, 3-[6-(8-Methyl-3,8-diaza-bicyclo[3.2.1]oct-3-yl)-pyridazin-3-yl]-phenylamine]	164		< 1000
CN1C2CCC1CN(c1ccc(-c3ccc(F)cc3)nn1)C2	164 to 165		
CN1C2CCC1CN(c1ccc(-c3cccs3)nn1)C2 [Compound E1, 8-Methyl-3-(6-thiophen-2-yl-pyridazin-3-yl)-3,8-diaza-bicyclo[3.2.1]octane]	156		< 1000
CN1C2CCC1CN(c1ccc(-c3ccco3)nn1)C2 [Compound E3, 3-(6-Furan-2-yl-pyridazin-3-yl)-8-methyl-3,8-diaza-bicyclo[3.2.1]octane]	144		< 1000
